The results in this text go back to US20240287138A1, “CYCLIC PEPTIDES FOR INHIBITING TNF RECEPTOR 1 ACTIVITY” (Merck Sharp & Dohme LLC, priority 2023, published 2024).

Numbered stars: 1 amine (or outer) side, 2 acyl side, 3 side chain; on linkers, the order of the positions; unused ones are H or OH. Bridge positions count the residues as written; N and C are the ends. Square brackets hold non-standard residues; d marks the D form. Peptide text beside a SMILES is read from it. * marks the point of attachment. Trp(βS-Me,7-OMe) = COc1cccc2c([C@H](C)[C@H](N)C(=O)O)c[nH]c12; Trp(7-CN) = N#Cc1cccc2c(C[C@H](N)C(=O)O)c[nH]c12; Trp(7-Cl) = N[C@@H](Cc1c[nH]c2c(Cl)cccc12)C(=O)O; Phe(3-CONH2) = NC(=O)c1cccc(C[C@H](N)C(=O)O)c1; Phe(4-CONH2) = NC(=O)c1ccc(C[C@H](N)C(=O)O)cc1; Phe(4-COOH) = N[C@@H](Cc1ccc(C(=O)O)cc1)C(=O)O; Trp(7-aza) = N[C@@H](Cc1c[nH]c2ncccc12)C(=O)O; dPro(4S-NH2) = N[C@@H]1CN[C@@H](C(=O)O)C1; Pip(5R-OH) = O=C(O)[C@@H]1CC[C@@H](O)CN1; X1 = O=C([C@@H]1CC[C@H](N[*:1])C1)[*:2]; Isoxazole(3-carbonyl) = O=C(c1ccon1)*; Pip(4-aza) = O=C(O)[C@@H]1CNCCN1; hPhe = N[C@@H](CCc1ccccc1)C(=O)O; 4Pal = N[C@@H](Cc1ccncc1)C(=O)O; NMeE = CN[C@@H](CCC(=O)O)C(=O)O; dHyp = O=C(O)[C@H]1C[C@H](O)CN1; X7 = CC[C@@H](C(=O)[*:1])[*:2]; Ahp(2) = CCCCC[C@H](N)C(=O)O; αMeS = C[C@](N)(CO)C(=O)O; Nle = CCCC[C@H](N)C(=O)O; Dab = NCC[C@H](N)C(=O)O; Sar = CNCC(=O)O

As a reminder, the IC50 is the point on the concentration scale where inhibition reaches its midpoint.

The experiment has as its target T1, TNFα-induced NF-κB signal transduction pathway (TNFR1 signaling) in THP-1 cells (Homo sapiens, UniProt P19438).
T1 sequence (P19438 30-455): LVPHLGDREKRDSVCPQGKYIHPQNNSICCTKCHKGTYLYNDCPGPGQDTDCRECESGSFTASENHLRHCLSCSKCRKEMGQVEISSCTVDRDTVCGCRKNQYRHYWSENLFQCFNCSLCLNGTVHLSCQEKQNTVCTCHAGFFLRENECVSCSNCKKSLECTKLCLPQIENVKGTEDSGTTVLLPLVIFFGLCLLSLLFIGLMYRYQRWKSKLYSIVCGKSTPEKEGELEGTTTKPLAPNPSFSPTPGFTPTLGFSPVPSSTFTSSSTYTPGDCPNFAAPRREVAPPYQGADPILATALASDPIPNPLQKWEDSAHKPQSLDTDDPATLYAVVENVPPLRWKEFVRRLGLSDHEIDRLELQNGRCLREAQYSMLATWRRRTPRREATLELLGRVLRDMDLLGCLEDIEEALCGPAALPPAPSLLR
Put plainly: THP-1 Lucia NF-κB reporter cell assay, inhibition of TNFα-induced NF-κB signaling. Format: cell-based. The conditions noted are these: THP-1 NF-κB Lucia reporter cells, 10 ng/mL TNFα, 16-18 h, secreted luciferase; read-out: THP-1 IC50. Summed up: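 Read-out: secreted Lucia luciferase luminescence (QUANTI-Luc) from supernatant after 16-18 h, 37 °C, 10 ng/mL rhTNFα. Peptide pretreatment 1 h at 37 °C; 20,000 cells/well, selection antibiotics omitted. IC50 via 4-parameter logistic model against min/max controls.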
Take `CCCC[C@@H]1NC(=O)[C@@H]2CC[C@@H](C2)NC(=O)[C@H]([C@@H](C)c2c[nH]c3c(OC)cccc23)NC(=O)CN(C)C(=O)[C@H](Cc2ccc(O)cc2)NC(=O)[C@H](Cc2ccc(C(=O)O)cc2)NC(=O)[C@](C)(CO)NC(=O)[C@H](Cc2c[nH]c3c(Cl)cccc23)NC(=O)[C@H](Cc2ccncc2)NC(=O)[C@H](CC(N)=O)NC(=O)[C@H]2C[C@H](N)CN2C(=O)[C@H](Cc2c[nH]c3ccccc23)NC(=O)[C@@H]2CNCCN2C(=O)[C@H](Cc2ccncc2)NC1=O` [SEQ ID NO. 161] (cyclo([4Pal][Trp(7-Cl)][αMeS][Phe(4-COOH)]Y[Sar][Trp(βS-Me,7-OMe)][X1][Nle][4Pal][Pip(4-aza)]W[dPro(4S-NH2)]N)): the concentration for half-maximal inhibition (IC50) worked out at 1.3 nM.
The result for `CCCC[C@@H]1NC(=O)[C@@H]2CC[C@@H](C2)NC(=O)[C@H]([C@@H](C)c2c[nH]c3c(OC)cccc23)NC(=O)CN(C)C(=O)[C@H](Cc2ccc(O)cc2)NC(=O)[C@H](Cc2ccc(C(N)=O)cc2)NC(=O)[C@](C)(CO)NC(=O)[C@H](Cc2c[nH]c3c(Cl)cccc23)NC(=O)[C@H](Cc2ccncc2)NC(=O)[C@H](CC(N)=O)NC(=O)[C@H](CCC(=O)O)N(C)C(=O)[C@H](Cc2c[nH]c3ccccc23)NC(=O)[C@@H]2CC[C@@H](O)CN2C(=O)[C@H](Cc2ccncc2)NC1=O` [SEQ ID NO. 163] (cyclo([4Pal][Trp(7-Cl)][αMeS][Phe(4-CONH2)]Y[Sar][Trp(βS-Me,7-OMe)][X1][Nle][4Pal][Pip(5R-OH)]W[NMeE]N)) reads 0.7 nM.
The result for `CCCC[C@@H]1NC(=O)[C@H](CC)SC[C@@H](C(N)=O)NC(=O)[C@H]([C@@H](C)c2c[nH]c3c(OC)cccc23)NC(=O)CN(C)C(=O)[C@H](Cc2ccc(O)cc2)NC(=O)[C@H](Cc2ccc(C(N)=O)cc2)NC(=O)[C@](C)(CO)NC(=O)[C@H](Cc2c[nH]c3c(Cl)cccc23)NC(=O)[C@H](Cc2ccc(C(=O)O)cc2)NC(=O)[C@H](CC(N)=O)NC(=O)[C@H](CCC(=O)O)N(C)C(=O)[C@H](Cc2c[nH]c3ncccc23)NC(=O)[C@@H]2CC[C@@H](O)CN2C(=O)[C@H](Cc2ccncc2)NC1=O` [SEQ ID NO. 168] ([Nle][4Pal][Pip(5R-OH)][Trp(7-aza)][NMeE]N[Phe(4-COOH)][Trp(7-Cl)][αMeS][Phe(4-CONH2)]Y[Sar][Trp(βS-Me,7-OMe)]C-NH2; linker N-14 via X7) reads 1.2 nM; that for `COc1cccc2c([C@H](C)[C@@H]3NC(=O)CN(C)C(=O)[C@H](Cc4cccc(C(N)=O)c4)NC(=O)[C@H](Cc4ccc(C(N)=O)cc4)NC(=O)[C@](C)(CO)NC(=O)[C@H](Cc4c[nH]c5c(Cl)cccc45)NC(=O)[C@H](Cc4ccncc4)NC(=O)[C@H](CC(N)=O)NC(=O)[C@H]4C[C@H](O)CN4C(=O)[C@H](Cc4c[nH]c5ccccc45)NC(=O)[C@@H]4CC[C@@H](O)CN4C(=O)[C@H](Cc4ccncc4)NC(=O)[C@H](CCNC(=O)c4ccon4)NC(=O)[C@@H]4CC[C@@H](C4)NC3=O)c[nH]c12` [SEQ ID NO. 169] (cyclo([4Pal][Trp(7-Cl)][αMeS][Phe(4-CONH2)][Phe(3-CONH2)][Sar][Trp(βS-Me,7-OMe)][X1][Dab](Isoxazole(3-carbonyl))[4Pal][Pip(5R-OH)]W[dHyp]N)), 0.6 nM; that for `CCCC[C@@H]1NC(=O)CSC[C@@H](C(N)=O)NC(=O)[C@H]([C@@H](C)c2c[nH]c3c(OC)cccc23)NC(=O)CN(C)C(=O)[C@H](Cc2ccc(O)cc2)NC(=O)[C@H](Cc2ccc(C(=O)O)cc2)NC(=O)[C@](C)(CO)NC(=O)[C@H](Cc2c[nH]c3c(Cl)cccc23)NC(=O)[C@H](Cc2ccncc2)NC(=O)[C@H](CC(N)=O)NC(=O)[C@H](CCC(=O)O)N(C)C(=O)[C@H](Cc2c[nH]c3ncccc23)NC(=O)[C@@H]2CNCCN2C(=O)[C@H](CCc2ccccc2)NC1=O` [SEQ ID NO. 172] ({CH2CO}-[Nle][hPhe][Pip(4-aza)][Trp(7-aza)][NMeE]N[4Pal][Trp(7-Cl)][αMeS][Phe(4-COOH)]Y[Sar][Trp(βS-Me,7-OMe)]C-NH2; thioether N-14), 3.9 nM.
To `CCCCC[C@@H]1NC(=O)[C@@H]2CC[C@@H](C2)NC(=O)[C@H]([C@@H](C)c2c[nH]c3c(OC)cccc23)NC(=O)CN(C)C(=O)[C@H](Cc2cccc(C(N)=O)c2)NC(=O)[C@H](Cc2ccc(C(N)=O)cc2)NC(=O)[C@](C)(CO)NC(=O)[C@H](Cc2c[nH]c3c(C#N)cccc23)NC(=O)[C@H](Cc2ccncc2)NC(=O)[C@H](CC(N)=O)NC(=O)[C@H]2C[C@H](O)CN2C(=O)[C@H](Cc2c[nH]c3ccccc23)NC(=O)[C@@H]2CNCCN2C(=O)[C@H](Cc2ccncc2)NC1=O` [SEQ ID NO. 174] (cyclo([4Pal][Trp(7-CN)][αMeS][Phe(4-CONH2)][Phe(3-CONH2)][Sar][Trp(βS-Me,7-OMe)][X1][Ahp(2)][4Pal][Pip(4-aza)]W[dHyp]N)) belongs 0.7 nM.
